Assay results published in PubChem BioAssay (NCI).
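Briefly, cells in 96-well plates were exposed to five compound concentrations for 48 h, and endpoints were estimated by linear interpolation. GI50 is the concentration that inhibits growth by half. TGI: total growth inhibition.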

How the values were obtained:
Experiment in all cases: DTP human tumour cell line panel, 48 h
786-0 renal = test system: 786-0 renal
A498 renal = test system: A498 renal
A549 NSCLC = test system: A549 NSCLC
ACHN renal = test system: ACHN renal
BT-549 breast = test system: BT-549 breast
CAKI-1 renal = test system: CAKI-1 renal
COLO 205 colon = test system: COLO 205 colon
DU-145 prostate = test system: DU-145 prostate
EKVX NSCLC = test system: EKVX NSCLC
HCC-2998 colon = test system: HCC-2998 colon
HCT-116 colon = test system: HCT-116 colon
HCT-15 colon = test system: HCT-15 colon
HL-60(TB) leukemia = test system: HL-60(TB) leukemia
HOP-62 NSCLC = test system: HOP-62 NSCLC
HOP-92 NSCLC = test system: HOP-92 NSCLC
HS 578T breast = test system: HS 578T breast
HT29 colon = test system: HT29 colon
IGROV1 ovarian = test system: IGROV1 ovarian
K-562 leukemia = test system: K-562 leukemia
KM12 colon = test system: KM12 colon
LOX IMVI melanoma = test system: LOX IMVI melanoma
M14 melanoma = test system: M14 melanoma
MCF7 breast = test system: MCF7 breast
MDA-MB-231 breast = test system: MDA-MB-231 breast
MDA-MB-435 = test system: MDA-MB-435
MOLT-4 leukemia = test system: MOLT-4 leukemia

Cc1ccc(-n2c3c(c4c(CN5CCOCC5)c(O)ccc42)CCc2ccccc2C3=O)cc1
GI50 (786-0 renal): 91.5 µM | TGI (786-0 renal): > 100 µM | GI50 (A498 renal): > 100 µM | TGI (A498 renal): > 100 µM | GI50 (A549 NSCLC): 82.3 µM | TGI (A549 NSCLC): > 100 µM | GI50 (ACHN renal): > 100 µM | TGI (ACHN renal): > 100 µM | GI50 (BT-549 breast): 33.8 µM | TGI (BT-549 breast): > 100 µM | GI50 (CAKI-1 renal): 94.1 µM | TGI (CAKI-1 renal): > 100 µM | GI50 (COLO 205 colon): > 100 µM | TGI (COLO 205 colon): > 100 µM | GI50 (DU-145 prostate): > 100 µM | TGI (DU-145 prostate): > 100 µM | GI50 (EKVX NSCLC): > 100 µM | TGI (EKVX NSCLC): > 100 µM | GI50 (HCC-2998 colon): > 100 µM | TGI (HCC-2998 colon): > 100 µM | GI50 (HCT-116 colon): > 100 µM | TGI (HCT-116 colon): > 100 µM | GI50 (HCT-15 colon): > 100 µM | TGI (HCT-15 colon): > 100 µM | GI50 (HL-60(TB) leukemia): 19.9 µM | TGI (HL-60(TB) leukemia): 92.2 µM | GI50 (HOP-62 NSCLC): > 100 µM | TGI (HOP-62 NSCLC): > 100 µM | GI50 (HOP-92 NSCLC): 68.2 µM | TGI (HOP-92 NSCLC): > 100 µM | GI50 (HS 578T breast): > 100 µM | TGI (HS 578T breast): > 100 µM | TGI (HT29 colon): 0.241 µM | GI50 (IGROV1 ovarian): 23.3 µM | TGI (IGROV1 ovarian): > 100 µM | GI50 (K-562 leukemia): 25.8 µM | TGI (K-562 leukemia): > 100 µM | GI50 (KM12 colon): > 100 µM | TGI (KM12 colon): > 100 µM | GI50 (LOX IMVI melanoma): > 100 µM | TGI (LOX IMVI melanoma): > 100 µM | GI50 (M14 melanoma): > 100 µM | TGI (M14 melanoma): > 100 µM | GI50 (MCF7 breast): > 100 µM | TGI (MCF7 breast): > 100 µM | GI50 (MDA-MB-231 breast): 37.8 µM | TGI (MDA-MB-231 breast): > 100 µM | GI50 (MDA-MB-435): 29.6 µM | TGI (MDA-MB-435): > 100 µM | GI50 (MOLT-4 leukemia): 35.1 µM | TGI (MOLT-4 leukemia): > 100 µM
